Consider 9 compounds from US5698522A, “6-position modified decapeptide LHRH antagonists” (Abbott Laboratories, priority 1995, dated 1997).

Where a SMILES comes first, the peptide text is derived from it. Side-chain parts run from the residue outwards. [ ]: non-standard residue; d: D form. The star is where a group is joined. Shikimoyl = O=C(C1=C[C@@H](O)[C@@H](O)[C@H](O)C1)*; dPhe(4-Cl) = N[C@H](Cc1ccc(Cl)cc1)C(=O)O; d2Nal = N[C@H](Cc1ccc2ccccc2c1)C(=O)O; Lys(iPr) = CC(C)NCCCC[C@H](N)C(=O)O; NMeY = CN[C@@H](Cc1ccc(O)cc1)C(=O)O; d3Pal = N[C@H](Cc1cccnc1)C(=O)O; Nicotinoyl = O=C(c1cccnc1)*; Picolinoyl = O=C(c1ccccn1)*; dOrn = NCCC[C@@H](N)C(=O)O; 2Furoyl = O=C(c1ccco1)*; Ahx = NCCCCCC(=O)O; X2 = O=C(c1ccoc1)*; GABA = NCCCC(=O)O; azaGly = NNC(=O)O; βAla = NCCC(=O)O; Sar = CNCC(=O)O

This test deals with T1, LHRH receptor (Rattus norvegicus, UniProt P30969).
T1 construct: endogenous in cells
T1 sequence (P30969 1-327): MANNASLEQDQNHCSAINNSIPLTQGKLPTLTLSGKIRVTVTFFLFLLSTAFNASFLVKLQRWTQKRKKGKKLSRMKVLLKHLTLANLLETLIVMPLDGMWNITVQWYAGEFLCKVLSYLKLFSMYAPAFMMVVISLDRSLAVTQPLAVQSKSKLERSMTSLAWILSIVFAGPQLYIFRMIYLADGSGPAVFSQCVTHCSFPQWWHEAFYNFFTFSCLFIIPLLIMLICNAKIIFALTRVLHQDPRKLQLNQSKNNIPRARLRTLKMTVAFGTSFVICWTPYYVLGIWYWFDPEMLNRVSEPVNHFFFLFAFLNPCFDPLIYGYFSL
Kind of test: in vitro LHRH antagonist potency (pA2) against the agonist leuprolide. Conditions: negative logarithm of the antagonist concentration which shifts the response curve produced by the agonist leuprolide to two-fold higher concentration. In kind it is cell-based. The gist of the method:
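Functional antagonism against the agonist leuprolide. pA2 is the negative log of antagonist concentration that shifts the leuprolide response curve to twofold higher concentration.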

A word on the Kb: it is the affinity of an antagonist, worked out from how it opposes an agonist. Consider `CC(=O)N[C@H](Cc1ccc2ccccc2c1)C(=O)N[C@H](Cc1ccc(Cl)cc1)C(=O)N[C@H](Cc1cccnc1)C(=O)N[C@@H](CO)C(=O)N(C)[C@@H](Cc1ccc(O)cc1)C(=O)N[C@H](CCCCNC(=O)[C@@H](CO)NC(=O)CNC(=O)C1=C[C@@H](O)[C@@H](O)[C@H](O)C1)C(=O)N[C@@H](CC(C)C)C(=O)N[C@@H](CCCNC(=N)N)C(=O)N1CCC[C@H]1C(=O)N[C@H](C)C(N)=O` [Example 48j, NAc-D2Nal^1 -D4ClPhe^2 -D3Pal^3 -Ser^4 -NMeTyr^5 -DLys(N-epsilon-D-Ser-Gly-Shikimyl)^6 -Leu^7 -Arg^8 -Pro^9 -DAla^10 NH2] (Ac-[d2Nal][dPhe(4-Cl)][d3Pal]S[NMeY][dK]([dS-Gly-Shikimoyl])LRP[dA]-NH2), for which the Kb is 17 pM.

As for `CC(=O)N[C@H](Cc1ccc2ccccc2c1)C(=O)N[C@H](Cc1ccc(Cl)cc1)C(=O)N[C@H](Cc1cccnc1)C(=O)N[C@@H](CO)C(=O)N(C)[C@@H](Cc1ccc(O)cc1)C(=O)N[C@H](CCCCNC(=O)CN(C)C(=O)c1cccnc1)C(=O)N[C@@H](CC(C)C)C(=O)N[C@@H](CCCCNC(C)C)C(=O)N1CCC[C@H]1C(=O)N[C@H](C)C(N)=O` [Example 4d, NAc-D2Nal^1 -D4ClPhe^2 -D3Pal^3 -Ser^4 -NMeTyr^5 -DLys(N-epsilon-Sar-Nicotinyl)^6 -Leu^7 -Lys(N-epsilon-Isopropyl)^8 -Pro^9 -DAla^10 NH2] (Ac-[d2Nal][dPhe(4-Cl)][d3Pal]S[NMeY][dK]([Sar-Nicotinoyl])L[Lys(iPr)]P[dA]-NH2), the Kb was 13.8 pM.

Take `CC(=O)N[C@H](Cc1ccc2ccccc2c1)C(=O)N[C@H](Cc1ccc(Cl)cc1)C(=O)N[C@H](Cc1cccnc1)C(=O)N[C@@H](CO)C(=O)N(C)[C@@H](Cc1ccc(O)cc1)C(=O)N[C@H](CCCCNC(=O)CNC(=O)C1=C[C@@H](O)[C@@H](O)[C@H](O)C1)C(=O)N[C@@H](CC(C)C)C(=O)N[C@@H](CCCCNC(C)C)C(=O)N1CCC[C@H]1C(=O)N[C@H](C)C(N)=O` [Example 6b, NAc-D2Nal^1 -D4ClPhe^2 -D3Pal^3 -Ser^4 -NMeTyr^5 -DLys(N-epsilon-Gly-Shikimyl)^6 -Leu^7 -Lys(N-epsilon-Isopropyl)^8 -Pro^9 -DAla^10 NH2] (Ac-[d2Nal][dPhe(4-Cl)][d3Pal]S[NMeY][dK]([Gly-Shikimoyl])L[Lys(iPr)]P[dA]-NH2): the Kb was 24 pM.

For the compound `CC(=O)N[C@H](Cc1ccc2ccccc2c1)C(=O)N[C@H](Cc1ccc(Cl)cc1)C(=O)N[C@H](Cc1cccnc1)C(=O)N[C@@H](CO)C(=O)N(C)[C@@H](Cc1ccc(O)cc1)C(=O)N[C@H](CCCCNC(=O)CCCCCNC(=O)c1cccnc1)C(=O)N[C@@H](CC(C)C)C(=O)N[C@@H](CCCCNC(C)C)C(=O)N1CCC[C@H]1C(=O)N[C@H](C)C(N)=O` [Example 4e, NAc-D2Nal^1 -D4ClPhe^2 -D3Pal^3 -Ser^4 -NMeTyr^5 -DLys[N-epsilon-(N-epsilon-aminocaproyl)-Nicotinyl]^6 -Leu^7 -Lys(N-epsilon-Isopropyl)^8 -Pro^9 -DAla^10 NH2] (Ac-[d2Nal][dPhe(4-Cl)][d3Pal]S[NMeY][dK]([Ahx-Nicotinoyl])L[Lys(iPr)]P[dA]-NH2), the Kb is 33.9 pM.

`CC(=O)N[C@H](Cc1ccc2ccccc2c1)C(=O)N[C@H](Cc1ccc(Cl)cc1)C(=O)N[C@H](Cc1cccnc1)C(=O)N[C@@H](CO)C(=O)N(C)[C@@H](Cc1ccc(O)cc1)C(=O)N[C@H](CCCCNC(=O)[C@@H](CO)NC(=O)c1ccoc1)C(=O)N[C@@H](CC(C)C)C(=O)N[C@@H](CCCNC(=N)N)C(=O)N1CCC[C@H]1C(=O)N[C@H](C)C(N)=O` [Example 65b, NAc-D2Nal^1 -D4ClPhe^2 -D3Pal^3 -Ser^4 -NMeTyr^5 -DLys(N-epsilon-DSer-3Furoyl)^6 -Leu^7 -Arg^8 -Pro^9 -DAla^10 NH2] (Ac-[d2Nal][dPhe(4-Cl)][d3Pal]S[NMeY][dK]([dS-X2])LRP[dA]-NH2): the Kb was 2.29 pM.

In the case of `CC(=O)N[C@H](Cc1ccc2ccccc2c1)C(=O)N[C@H](Cc1ccc(Cl)cc1)C(=O)N[C@H](Cc1cccnc1)C(=O)N[C@@H](CO)C(=O)N(C)[C@@H](Cc1ccc(O)cc1)C(=O)N[C@H](CCCCNC(=O)CCNC(=O)NNC(=O)c1cccnc1)C(=O)N[C@@H](CC(C)C)C(=O)N[C@@H](CCCCNC(C)C)C(=O)N1CCC[C@H]1C(=O)N[C@H](C)C(N)=O` [Example 25a, NAc-D2Nal^1 -D4ClPhe^2 -D3Pal^3 -Ser^4 -NMeTyr^5 -DLys[N-epsilon-(beta-Alanyl)-Azagly-Nicotinyl]^6 -Leu^7 -Lys(N-epsilon-Isopropyl)^8 -Pro^9 -DAla^10 NH2] (Ac-[d2Nal][dPhe(4-Cl)][d3Pal]S[NMeY][dK]([βAla-azaGly-Nicotinoyl])L[Lys(iPr)]P[dA]-NH2), the Kb is 36.3 pM.

In the case of `CC(=O)N[C@H](Cc1ccc2ccccc2c1)C(=O)N[C@H](Cc1ccc(Cl)cc1)C(=O)N[C@H](Cc1cccnc1)C(=O)N[C@@H](CO)C(=O)N(C)[C@@H](Cc1ccc(O)cc1)C(=O)N[C@H](CCCCNC(=O)CCCNC(=O)CNC(=O)c1ccco1)C(=O)N[C@@H](CC(C)C)C(=O)N[C@@H](CCCCNC(C)C)C(=O)N1CCC[C@H]1C(=O)N[C@H](C)C(N)=O` [Example 57e, NAc-D2Nal^1 -D4ClPhe^2 -D3Pal^3 -Ser^4 -NMeTyr^5 -DLys(N-epsilon-4-aminobutyryl-glycyl-furoyl)^6 -Leu^7 -Lys(Isp)^8 -Pro^9 -DAla^10 NH2] (Ac-[d2Nal][dPhe(4-Cl)][d3Pal]S[NMeY][dK]([GABA-Gly-2Furoyl])L[Lys(iPr)]P[dA]-NH2), the Kb was 12 pM.

As for `CC(=O)N[C@H](Cc1ccc2ccccc2c1)C(=O)N[C@H](Cc1ccc(Cl)cc1)C(=O)N[C@H](Cc1cccnc1)C(=O)N[C@@H](CO)C(=O)N(C)[C@@H](Cc1ccc(O)cc1)C(=O)N[C@H](CCCCNC(=O)[C@@H](CO)NC(=O)c1ccccn1)C(=O)N[C@@H](CC(C)C)C(=O)N[C@@H](CCCNC(=N)N)C(=O)N1CCC[C@H]1C(=O)N[C@H](C)C(N)=O` [Example 48b, NAc-D2Nal^1 -D4ClPhe^2 -D3Pal^3 -Ser^4 -NMeTyr^5 -DLys(N-epsilon-D-Ser-Picolinyl)^6 -Leu^7 -Arg^8 -Pro^9 -DAla^10 NH2] (Ac-[d2Nal][dPhe(4-Cl)][d3Pal]S[NMeY][dK]([dS-Picolinoyl])LRP[dA]-NH2), the Kb was 37.2 pM.

With `CC(=O)N[C@H](Cc1ccc2ccccc2c1)C(=O)N[C@H](Cc1ccc(Cl)cc1)C(=O)N[C@H](Cc1cccnc1)C(=O)N[C@@H](CO)C(=O)N(C)[C@@H](Cc1ccc(O)cc1)C(=O)N[C@H](CCCNC(=O)CNC(=O)C1=C[C@@H](O)[C@@H](O)[C@H](O)C1)C(=O)N[C@@H](CC(C)C)C(=O)N[C@@H](CCCNC(=N)N)C(=O)N1CCC[C@H]1C(=O)N[C@H](C)C(N)=O` [Example 49c, NAc-D2Nal^1 -D4ClPhe^2 -D3Pal^3 -Ser^4 -NMeTyr^5 -DOrn(N-epsilon-Gly-Shikimyl)^6 -Leu^7 -Arg^8 -Pro^9 -DAla^10 NH2] (Ac-[d2Nal][dPhe(4-Cl)][d3Pal]S[NMeY][dOrn]([Gly-Shikimoyl])LRP[dA]-NH2), the Kb was 42.7 pM.
